For the first assay, the target named is T1, Alpha-glucosidase MAL12 (Saccharomyces cerevisiae S288c, UniProt P53341). As to the kind of experiment: Inhibition of bakers yeast alpha-glucosidase using p-nitrophenyl-alpha-D-glucopyranoside as substrate incubated for 15 mins followed by substrate addition measured after 30 mins by spectrophotometric analysis.
T1 sequence (P53341 whole entry): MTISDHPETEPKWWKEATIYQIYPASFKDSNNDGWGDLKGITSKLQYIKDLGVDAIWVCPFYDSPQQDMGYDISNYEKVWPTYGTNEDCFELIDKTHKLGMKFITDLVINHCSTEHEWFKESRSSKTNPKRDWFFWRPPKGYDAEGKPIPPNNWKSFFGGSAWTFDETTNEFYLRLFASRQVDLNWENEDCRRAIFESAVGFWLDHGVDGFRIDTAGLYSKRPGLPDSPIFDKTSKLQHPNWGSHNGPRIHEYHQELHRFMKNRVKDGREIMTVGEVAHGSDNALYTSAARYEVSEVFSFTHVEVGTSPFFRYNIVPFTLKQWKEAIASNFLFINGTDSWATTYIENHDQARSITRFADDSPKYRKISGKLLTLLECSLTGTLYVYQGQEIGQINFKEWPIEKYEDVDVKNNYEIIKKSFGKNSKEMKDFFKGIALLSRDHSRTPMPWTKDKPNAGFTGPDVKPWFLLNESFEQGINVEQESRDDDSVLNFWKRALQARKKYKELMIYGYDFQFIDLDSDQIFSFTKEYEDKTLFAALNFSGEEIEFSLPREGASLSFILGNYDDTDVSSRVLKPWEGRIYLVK
The compound `CCOc1ccc(NC(=O)Cn2cc(Cn3c(-c4cccc(Cl)c4)nc(-c4ccccc4)c3-c3ccccc3)nn2)cc1` showed an IC50 of 44.2 µM.
In turn, `COc1ccc(NC(=O)Cn2cc(Cn3c(-c4cccs4)nc(-c4ccccc4)c3-c3ccccc3)nn2)cc1` returned an IC50 of 24.2 µM.
In turn, `COC(=O)c1ccc(-c2nc(-c3ccccc3)c(-c3ccccc3)n2Cc2cn(CC(=O)Nc3cc(Cl)ccc3Cl)nn2)cc1` displayed an IC50 of 20.2 µM.
As for `O=C(Cn1cc(Cn2c(-c3ccc(Br)cc3)nc(-c3ccccc3)c2-c2ccccc2)nn1)Nc1ccc(F)cc1`, the IC50 amounted to 22 µM.
Compound `CCOc1ccc(NC(=O)Cn2cc(Cn3c(-c4cccc(Br)c4)nc(-c4ccccc4)c3-c3ccccc3)nn2)cc1` showed an IC50 of 19.6 µM.
Consider `Cc1ccc(NC(=O)Cn2cc(Cn3c(-c4cccc(Cl)c4)nc(-c4ccccc4)c3-c3ccccc3)nn2)c(C)c1`, for which the IC50 amounted to 38.5 µM.
On to `COc1ccc(NC(=O)Cn2cc(Cn3c(-c4cccc(Cl)c4)nc(-c4ccccc4)c3-c3ccccc3)nn2)cc1`, for which inhibition was half-maximal at 48.2 µM (IC50).
Turning to `COc1ccccc1-c1nc(-c2ccccc2)c(-c2ccccc2)n1Cc1cn(CC(=O)Nc2ccc(C)cc2)nn1`, the IC50 was determined as 27 µM.
As to `COc1cc(-c2nc(-c3ccccc3)c(-c3ccccc3)n2Cc2cn(CC(=O)Nc3cccc(C)c3)nn2)cc(OC)c1OC`, it took 20.3 µM to reach half-maximal inhibition (IC50).
The same measure, in the same setting: the value for `CCOc1ccccc1NC(=O)Cn1cc(Cn2c(-c3cccc(Br)c3)nc(-c3ccccc3)c2-c2ccccc2)nn1` was 15.2 µM; that for `CCOc1ccc(NC(=O)Cn2cc(Cn3c(-c4ccc(C(=O)OC)cc4)nc(-c4ccccc4)c3-c3ccccc3)nn2)cc1` was 17 µM; that for `Cc1ccccc1NC(=O)Cn1cc(Cn2c(-c3cccc(F)c3)nc(-c3ccccc3)c2-c2ccccc2)nn1` was 32.1 µM.
Turning to `COc1cc(-c2nc(-c3ccccc3)c(-c3ccccc3)n2Cc2cn(CC(=O)Nc3ccc(Cl)cc3)nn2)cc(OC)c1OC`, it took 29.2 µM to reach half-maximal inhibition (IC50).
The same measure, in the same setting: the value for `CCOc1ccccc1NC(=O)Cn1cc(Cn2c(-c3ccccc3F)nc(-c3ccccc3)c2-c2ccccc2)nn1` was 36.9 µM; that for `Cc1ccccc1NC(=O)Cn1cc(Cn2c(-c3ccc(Br)cc3)nc(-c3ccccc3)c2-c2ccccc2)nn1` was 29.3 µM; that for `Cc1ccc(NC(=O)Cn2cc(Cn3c(-c4cccc(F)c4)nc(-c4ccccc4)c3-c3ccccc3)nn2)c(C)c1` was 30.1 µM.
Regarding `O=C(Cn1cc(Cn2c(-c3ccc(F)cc3)nc(-c3ccccc3)c2-c2ccccc2)nn1)Nc1ccc(Cl)cc1Cl`, the IC50 was 22.8 µM.
As to `COc1ccc(-c2nc(-c3ccccc3)c(-c3ccccc3)n2Cc2cn(CC(=O)Nc3ccc(Cl)cc3Cl)nn2)cc1OC`, it took 21.6 µM to reach half-maximal inhibition (IC50).

The target in another assay is T1, Alpha-glucosidase MAL12. As to the kind of experiment: Non-competitive inhibition of bakers yeast alpha-glucosidase using p-nitrophenyl-alpha-D-glucopyranoside as substrate by Lineweaver-Burk plot analysis.
`CCOc1ccccc1NC(=O)Cn1cc(Cn2c(-c3cccc(Br)c3)nc(-c3ccccc3)c2-c2ccccc2)nn1`: affinity was put at a Ki of 14.8 µM.
